Data on twelve compounds can be found in US4555572A, “Pyrazolo[3,4,5-kl]acridine compositions and methods for their production and use” (Warner-Lambert Company, priority 1984, dated 1985).

The structures appear in SMILES notation. Converted amounts (≈) assume the structure as drawn. Counter-ions that a name gives are not always drawn. Like-named read-outs stand apart in the source and are kept apart here. Some results are limits rather than exact numbers.

One test deals with L1210 cells. Kind of test: PDC test, L1210 cell growth. Type of test: cell-based, murine. The settings on record: Mus musculus, read-out: PDC ID50. The method, then:
(c) Another test protocol is the PDC test. L1210 cells, a murine leukemia cell line, were grown in RPMI 1640 supplemented with 10% fetal bovine serum and genamicin (50 μg/ml). Drug dilutions were prepared in the appropriate solvent and 20 μl of each dilution were added to 24-well Linbro tissue culture plates followed by the addition of 2.0 ml of cell suspension containing 3×10^4 cells per ml. Solvent and medium controls were included in each test. After incubation at 37° C. for three days in 5% CO2 in air, the contents of each well were removed and the cells counted in a ZBI Coulter counter. Per cent growth was calculated relative to the controls and the levels of drug activity were expressed as ID50 in terms of molarity (M).

For test [1], the system named is lymphocytic leukemia P388. Kind of test: in vivo lymphocytic leukemia P388 test. On the set-up: species or system CD2 F1 mice. The note with it: Mus musculus, P388, ip, 120 h, intraperitoneally once daily for five days, read-out: P388 in vivo T/C × 100. The method, then:
Another test protocol is the in vivo lymphocytic leukemia P388 test. The animals used are either male or female CD2 F1 mice, six or seven animals per test group. The tumor transplant is by intraperitoneal injection of dilute ascitic fluid containing cells of lymphocytic leukemia P388. The test compounds are administered intraperitoneally once daily for five consecutive days at various doses following tumor inoculation. The animals are weighed and survivors are recorded on a regular basis for 30 days. A compound is designated "toxic" if, at a given dose, all animals died prior to four days after the first injection of drug. A ratio of survival time for treated (T)/control (C) animals is calculated. A criterion for efficacy is a ratio T/C times 100 greater than or equal to 125. See Cancer Chemotherapy Reports, Part 3, 3, 1 (1972) for a comprehensive discussion of the protocol.

Another test concerns Branhamella catarrhalis. In words: in vitro antibacterial (ABMF) microdilution susceptibility test. The class given is cell-based. The settings on record: Moraxella catarrhalis, read-out: ABMF Test M.I.C. B. cata. The text has this:
(§1) (d) Still another test protocol is the in vitro antibacterial (ABMF) test which is a recognized standard microdilution susceptibility procedure in Mueller-Hinton broth against gram-positive and gram-negative bacterial test organisms. The procedure is a modification of a state-of-the-art procedure reported in Manual of Clinical Microbiology, Lennette, E. H., ed., by Barry, A. L. and C. Thornsberry at pages 463-474 and by Gavan, T. L. and A. L. Barry at pages 459-462, American Society for Microbiology, Washington, 1980.
(§2) In the test, a given bacterial culture is used to inoculate individaul test wells of microdilution trays containing growth medium and test compound, the latter in a microdilution series: 1000, 333, 111, 37, 12, 4, 1.4, and 0.46 micrograms per milliliter. […] For convenience, values are reported for Escherichia coli, Branhamella catarrhalis, Alcaligenes viscolactis, Streptococcus pneumoniae, and Bacillus cereus

The test system of a further test is Alcaligenes viscolactis. The description is as above. Type of test: cell-based. The note with it: read-out: ABMF Test M.I.C. A. visc.
Description: as §1, §2

A further test relates to Streptococcus pneumoniae. The test is described as above. Type of test: cell-based. The note with it: read-out: ABMF Test M.I.C. S. pneu.
Description: as §1, §2

Another test relates to Bacillus cereus. The description is as above. The class given is cell-based. The settings on record: read-out: ABMF Test M.I.C. B. cere.
Description: as §1, §2

For another test, the system named is Escherichia coli. Described as above. The class given is cell-based. The settings on record: read-out: ABMF Test M.I.C. E. coli.
Description: as §1, §2

[2] abbreviates: Mueller-Hinton broth, 37° C., 16-24 hours.

For the compound `CC(=O)Oc1ccc2c(c1)-c1nn(CCCN(C)C)c3ccc([N+](=O)[O-])c(c13)N2` [Example 47, 2-[3-(Dimethylamino)propyl]-5-nitropyrazolo[3,4,5-kl]acridin-9-ol, acetate (ester), methanesulfonate (salt) (1:1)], the IC50 in the test with L1210 cells (72 h, L1210 cells, three days) came out at 1.9 nM. Further, the response vs control in vivo at 0.39 mg/kg in test [1] (0.39 mg/kg) was 144%. In addition, in test [1], the response vs control in vivo at 0.78 mg/kg turned out to be 178%. The MIC in the test on Branhamella catarrhalis (setting [2]), with Alcaligenes viscolactis (setting [2]), with Streptococcus pneumoniae (setting [2]), in the test with Bacillus cereus (setting [2]) and in the test on Escherichia coli (setting [2]) was below 0.46 µg/mL throughout.
`CN(C)CCn1nc2c3c(c([N+](=O)[O-])ccc31)Nc1ccc(N(C)C)cc1-2` [Example 39, 9-(Dimethylamino)-N,N-dimethyl-5-nitropyrazolo[3,4,5-kl]acridine-2(6H)-ethanamine, methanesulfonate (1:2), dihydrate]: the IC50 with L1210 cells (72 h, L1210 cells, three days) was determined as 600 nM. In addition, the response vs control in vivo at 6.25 mg/kg in test [1] is 126%. Besides, the response vs control in vivo at 12.5 mg/kg in test [1] amounted to 164%. The response vs control in vivo at 25 mg/kg in test [1] (25 mg/kg) is 189%. Also, the MIC was 12.3 µg/mL with Branhamella catarrhalis (setting [2]); 1.4 µg/mL in the test on Alcaligenes viscolactis (setting [2]); 1.4 µg/mL in the test with Streptococcus pneumoniae (setting [2]); 12.3 µg/mL in the test on Bacillus cereus (setting [2]); 12.3 µg/mL in the test on Escherichia coli (setting [2]).
Take `CCOc1ccc2c(c1)-c1nn(CCN(CC)CC)c3c([N+](=O)[O-])cc([N+](=O)[O-])c(c13)N2.CS(=O)(=O)O.O` [Example 51, 9-Ethoxy-N,N-diethyl-3,5-dinitropyrazolo[3,4,5-kl]acridine-2(6H)-ethanamine, methanesulfonate, hydrate]: in the test on L1210 cells (L1210, 72 h), the IC50 amounted to 380 nM. Also, the MIC in the test on Branhamella catarrhalis was 333 µg/mL; in the test on Alcaligenes viscolactis, below 0.46 µg/mL; with Streptococcus pneumoniae it was 111 µg/mL; in the test with Bacillus cereus, 333 µg/mL; in the test on Escherichia coli it was above 1000 µg/mL.
As for `CCN(CC)CCn1nc2c3c(c([N+](=O)[O-])ccc31)Nc1cc(OC)cc(OC)c1-2.CS(=O)(=O)O.O` [Example 24, N,N-Diethyl-8,10-dimethoxy-5-nitropyrazolo[3,4,5-kl]acridine-2(6H)-ethanamine, methanesulfonate, hydrate (1:1:1)], in the test with L1210 cells (72 h, L1210 cells, three days), the IC50 is 490 nM. In addition, the MIC was below 0.46 µg/mL with Branhamella catarrhalis (setting [2]); below 0.46 µg/mL with Alcaligenes viscolactis (setting [2]); 1.4 µg/mL in the test on Streptococcus pneumoniae (setting [2]); below 0.46 µg/mL in the test with Bacillus cereus (setting [2]); 4.1 µg/mL with Escherichia coli (setting [2]).
On to `CCN(CC)CCn1nc2c3c(c([N+](=O)[O-])ccc31)Nc1ccc(OC)c(Cl)c1-2` [Example 25, 10-Chloro-N,N-diethyl-9-methoxy-5-nitropyrazolo[3,4,5-kl]acridine-2(6Hethanamine, methanesulfonate, hydrate], for which the IC50 in the test on L1210 cells (72 h, L1210 cells, three days) came to 70 nM. Besides, the MIC in the test with Branhamella catarrhalis (setting [2]), in the test with Alcaligenes viscolactis (setting [2]), with Streptococcus pneumoniae (setting [2]), in the test on Bacillus cereus (setting [2]) and with Escherichia coli (setting [2]) was below 0.46 µg/mL in each case.
On to `CCN(CC)CCCn1nc2c3c(c([N+](=O)[O-])ccc31)Nc1ccc(OC)cc1-2` [Example 43, N,N-Diethyl-9-methoxy-5-nitropyrazolo[3,4,5-kl]acridine-2(6H)-propanamine, methanesulfonate, hydrate (1:1)], for which the IC50 in the test with L1210 cells (72 h, L1210 cells, three days) worked out at 1300 nM. In test [1], the response vs control in vivo at 6.25 mg/kg was found to be 165%. For the same compound, in test [1], the response vs control in vivo at 12.5 mg/kg stood at 184%. Moreover, in test [1] (50 mg/kg), the response vs control in vivo at 50 mg/kg stood at 202%. Moreover, the MIC in the test with Branhamella catarrhalis (setting [2]) was 4.1 µg/mL; in the test on Alcaligenes viscolactis (setting [2]), below 0.46 µg/mL; with Streptococcus pneumoniae (setting [2]), below 0.46 µg/mL; in the test on Bacillus cereus (setting [2]), 4.1 µg/mL; with Escherichia coli (setting [2]), 1.4 µg/mL.
Consider `CN(C)CCCn1nc2c3c(c([N+](=O)[O-])ccc31)Nc1ccc(OC(=O)C(C)(C)C)cc1-2` [Example 48, 2-[3-(Dimethylamino)propyl]-5-nitropyrazolo[3,4,5-kl]acridin-9-ol, 2,2-dimethylpropanoate (ester), methanesulfonate (salt) (1:1)], for which the IC50 in the test with L1210 cells (72 h, L1210 cells, three days) came to 9.8 nM. Besides, the response vs control in vivo at 0.78 mg/kg in test [1] is 175%. Moreover, in test [1] (1.56 mg/kg), the response vs control in vivo at 1.56 mg/kg was found to be 263%. The MIC worked out at 1.4 µg/mL in the test with Branhamella catarrhalis (setting [2]); 0.46 µg/mL in the test with Alcaligenes viscolactis (setting [2]); 4.1 µg/mL in the test with Streptococcus pneumoniae (setting [2]); 333 µg/mL in the test with Bacillus cereus (setting [2]); 3.7 µg/mL with Escherichia coli (setting [2]).
For `CCOC(=O)Oc1ccc2c(c1)-c1nn(CCN(CC)CC)c3ccc([N+](=O)[O-])c(c13)N2` [Example 32, [2-[2-(Diethylamino)ethyl]-2,6-dihydro-5-nitropyrazolo [3,4,5-kl]acridin-9-yl]carbonic acid ethyl ester, methanesulfonate (salt) (1:1)], the IC50 with L1210 cells (72 h, L1210 cells, three days) came out at 3.2 nM. In addition, the response vs control in vivo at 3.12 mg/kg in test [1] (3.12 mg/kg) is 208%. Further, the response vs control in vivo at 6.25 mg/kg in test [1] came to 168%. The MIC in the test on Branhamella catarrhalis (setting [2]) was 1.4 µg/mL; in the test with Alcaligenes viscolactis (setting [2]), below 0.46 µg/mL; with Streptococcus pneumoniae (setting [2]) it was below 0.46 µg/mL; with Bacillus cereus (setting [2]) it was below 0.46 µg/mL; with Escherichia coli (setting [2]) it was 4.1 µg/mL.
For `Cc1ccc2c(c1)-c1nn(CCNCCO)c3ccc([N+](=O)[O-])c(c13)N2.Cl` [Example 42, 2-[[2-(9-Methyl-5-nitropyrazolo[3,4,5-kl]acridin-2(6H)-yl)ethyl]amino]ethanol, monohydrochloride], in the test on L1210 cells (72 h, L1210 cells, three days), the IC50 was found to be 590 nM. Besides, the MIC in the test on Branhamella catarrhalis (setting [2]), in the test with Alcaligenes viscolactis (setting [2]), in the test on Streptococcus pneumoniae (setting [2]), with Bacillus cereus (setting [2]) and in the test on Escherichia coli (setting [2]) was below 0.46 µg/mL in each case.
With `CCN(CC)CCn1nc2c3c(c([N+](=O)[O-])cc([N+](=O)[O-])c31)Nc1ccc(O)cc1-2` [Example 49, 2-[2-(Diethylamino)ethyl]-2,6-dihydro-3,5-dinitropyrazolo[3,4,5-kl]acridin-9-ol, methanesulfonate, hemihydrate], the IC50 with L1210 cells (L1210, 72 h) is 6.8 nM. Besides, the MIC with Branhamella catarrhalis, in the test with Alcaligenes viscolactis, with Streptococcus pneumoniae, in the test on Bacillus cereus and in the test with Escherichia coli was below 0.46 µg/mL each time.
For `CCN(CC)CCOc1ccc2c(c1)-c1nn(CCN(CC)CC)c3ccc([N+](=O)[O-])c(c13)N2` [Example 21], in the test with L1210 cells (72 h, L1210 cells, three days), the IC50 worked out at 460 nM. For the same compound, the MIC with Branhamella catarrhalis (setting [2]) came to 12.3 µg/mL (≈ 26.4 µM); in the test with Alcaligenes viscolactis (setting [2]), 4.1 µg/mL (≈ 8.79 µM); in the test on Streptococcus pneumoniae (setting [2]), 12.3 µg/mL (≈ 26.4 µM); in the test with Bacillus cereus (setting [2]), 37 µg/mL (≈ 79.3 µM); with Escherichia coli (setting [2]), 111 µg/mL (≈ 238 µM).
On to `COc1ccc2c(c1)-c1nn(CCCN(C)C)c3c([N+](=O)[O-])cc([N+](=O)[O-])c(c13)N2.CS(=O)(=O)O` [Example 55, N,N-Dimethyl-3,5-dinitro-9-methoxypyrazolo[3,4,5-kl]acridine-2(6H)-propanamine, methanesulfonate (1:1)], for which, in the test on L1210 cells (L1210, 72 h), the IC50 worked out at 220 nM. In addition, the MIC with Branhamella catarrhalis, in the test on Alcaligenes viscolactis, with Streptococcus pneumoniae, with Bacillus cereus and with Escherichia coli was below 0.46 µg/mL in each case.
